The source of these data is patent publication US8637574B2, “Salts of 3-pentylphenylacetic acid and pharmaceutical uses thereof” (priority 2009, dated 2014).

One series relates to PGE2. In words: LPS-induced inflammation in the rat air-pouch model (PGE2 in pouch exudates by ELISA). Format: in vivo, rats. The note with it: two hours after administration of LPS (FIG. 3). The source says:
LPS-induced inflammation in the rat air-pouch model is believed to mimic the pathological process occurring in joint diseases such as arthritis. This is because the connective tissues formed along the air pouch are similar to those found in chronic joint diseases. LPS-induced inflammation and chronic joint diseases share other features, including markedly elevated PGE2, neutrophil infiltration, cytokine formation, and tissue damage. An air cavity was produced at day −6 by subcutaneous injection of 20 ml of sterile air into the intrascapular area of the back of male Lewis rats (175-200 g). An additional 10 ml of air was injected into the cavity at day −3 to keep the space open. At day 0, Compound I was administered intravenously and one hour later lipopolysaccharide (LPS: 2.5 ml, 2 μg/ml in PBS) was injected into the pouch to produce an inflammatory reaction. Two hours after treatment with LPS, animals were euthanized by CO2 asphyxiation and 5 ml of PBS/heparin (10 U/ml)/indomethacin (36 μg/ml) was injected into the pouch. The pouch fluid was collected and PGE2 was determined in the pouch exudates by ELISA.

Series [1] relates to RAW264.7 (macrophage-like) cells. The experiment in a line: Nitric oxide production in LPS/interferon-stimulated RAW264.7 cells (Griess reagent). In kind it is cell-based. As to conditions: 1 μg/ml LPS and 0.5 ng/ml interferon, 16 hours, dose dependent. As to the method:
The effect of Compound I on NO production was undertaken in RAW264.7 (macrophage-like) cells. RAW264.7 cells were cultured with 1 μg/ml of LPS and 0.5 ng/ml of interferon in presence or absence of the compound for 16 hours in a humidified atmosphere of 95% air-5% carbon dioxide at 37° C. Nitric oxide measurement in the culture medium was measured using the Griess reagent after an incubation of 30 minutes at room temperature. The absorbance at 548 nm was read and compared with standard solutions of NaNO2. Cell viability was assessed with the addition of 50 μl of […]. After an incubation of 4 hours, the medium was removed and 150 μl of DMSO was added to dissolve the crystals. The optical density of each sample was read at 570 nm against a blank prepared from cell-free wells.

Series [2] deals with doxorubicin-induced nephrotoxicity model. The experiment in a line: Doxorubicin-induced nephrotoxicity model (serum albumin, serum creatinine, kidney histology). In kind it is in vivo, mice. As to the method: C57BI/6 mice (6-10 week-old) were treated with Compound I prophylacticly from day −3 to day 10 or treated therapeutically from day 1 to 10. Nephrotoxicity was induced by an intravenous injection of 10 mg/kg of doxorubicin at day 0. Serum albumin and creatinine were monitored at days 4, 7, 9 and 11.

Series [3] deals with ⅚ nephrectomized (Nx) rat model. The experiment in a line: Kidney protection in ⅚ nephrectomized rat model (GFR, creatinine clearance). Format: in vivo. The note with it: Nx rats over treatment period; 50% deterioration in Nx control rats (FIG. 5). An excerpt:
Male 6 week-old Wistar rats were subjected to ⅚ nephrectomy or sham operations. Under fluothane anesthesia, renal ablation was achieved by removing two-thirds of the left kidney followed by a right unilateral nephrectomy 7 days later. Sham rats underwent exposition of the kidneys and removal of the perirenal fat. Twenty-one days after the first operation, rats were randomized in the study by their reduced glomerular filtration rate (GFR) of creatinine indicating a dysfunction of the kidney. Animals that underwent the sham operation were given vehicle (saline) and were used as controls. Nx animals were divided in groups receiving the vehicle or Compound I. Saline or Compound I was given by gastric gavage once daily up to the sacrifice. GFR was measured every three weeks in order to assess the severity of this end-stage renal disease model. Rats were sacrificed at day 190.

Series [4] can be described thus: Physical properties of the salt and the free acid (hygroscopicity, water solubility). Format: physicochemical.

SMILES strings stand for the structures. Counter-ions that a name gives are not always drawn.

Turning to `COc1ccc2c(c1)c(CC(=O)O)c(C)n2C(=O)c1ccc(Cl)cc1` [indomethacin], the “inhibition of PGE2” value in the series on PGE2 is reported as “inhibition”.

For `CCCCCc1cccc(CC(=O)O)c1` [Compound I, sodium salt of 3-pentylphenylacetic acid], in series [1], the “inhibition of NO production” value is given as “about 50%”. In addition, the “kidney lesions at the tubular level induced by doxorubicin (histological score)” value in series [2] (prophylactic (pre-doxorubicin) and therapeutic (post-doxorubicin) treatments, mice (FIG. 9)) was “reduce the kidney lesions”. Besides, the “protection of kidney against doxorubicin toxicity (histological micrographs)” value in series [2] (prophylactic or therapeutic treatment, mice (FIG. 10)) was “protects kidney against doxorubicin toxicity”. In addition, the “decrease of serum albumin induced by doxorubicin” value in series [2] (prophylactic treatment day −3 to day 10, oral, mice (FIG. 7)) is given as “inhibits”. Moreover, the “increase of serum creatinine induced by doxorubicin” value in series [2] (prophylactic treatment day −3 to day 10, oral, mice (FIG. 8)) was “inhibits”. The “increase of serum creatinine level induced by doxorubicin” value in series [2] (therapeutic treatment day 1 to 10, oral, mice (FIG. 8)) was “inhibits”. In series [3], the “improvement of GFR compared to the initial GFR (before treatment) at day 21” value is 50%. In series [4], the hygroscopicity entry is recorded as “not hygroscopic” and the water solubility entry is “very water soluble”.

Regarding `COc1cccc2c1C(=O)c1c(O)c3c(c(O)c1C2=O)C[C@@](O)(C(=O)CO)C[C@@H]3O[C@H]1C[C@H](N)[C@H](O)[C@H](C)O1` [Doxorubicin, doxorubicin, reference compound], the “kidney lesions induced by doxorubicin alone (histological score)” value in series [2] (doxorubicin 10 mg/kg i.v. day 0, mice, day 7 and 11) was “significant kidney lesions”.
